Source: the supplement of paper PMC10307832

Legend:
Assay in all cases: relative viability (nuclei count vs DMSO), 5 days (fraction); higher = more cells survive
Selisistat + Phenformin = compound: C1CC(C2=C(C1)C3=C(N2)C=CC(=C3)Cl)C(=O)N [Selisistat] + N=C(N)NC(=N)NCCc1ccccc1 [Phenformin] (partner 250 µM)
How it was run: (§1)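 Lung cancer cell lines were seeded in 1536-well plates and dosed by pin tool the next day, with either a single drug or a fixed anchor-drug dose combined with five library-drug doses (not always all listed) spaced in √10 steps. Five days later, one step fixed the cells and stained their nuclei (final 0.05% Triton X-100, 1% formaldehyde, 1 ug/ml Hoechst), and nuclei were counted on 4× images. Relative viability is the nuclei count in treated wells divided by the count in vehicle wells, and each value is the median of duplicate plates.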

Serdemetan + Luminespib = compound: c1ccc2c(CCNc3ccc(Nc4ccncc4)cc3)c[nH]c2c1 [Serdemetan] + CCNC(=O)c1noc(-c2cc(C(C)C)c(O)cc2O)c1-c1ccc(CN2CCOCC2)cc1 [Luminespib] (partner 0.01 µM)
How it was run: as §1

Serdemetan + Alpelisib = compound: c1ccc2c(CCNc3ccc(Nc4ccncc4)cc3)c[nH]c2c1 [Serdemetan] + Cc1nc(NC(=O)N2CCC[C@H]2C(N)=O)sc1-c1ccnc(C(C)(C)C(F)(F)F)c1 [Alpelisib] (partner 2 µM)
How it was run: as §1

Selisistat + Navitoclax = compound: C1CC(C2=C(C1)C3=C(N2)C=CC(=C3)Cl)C(=O)N [Selisistat] + CC1(C)CCC(c2ccc(Cl)cc2)=C(CN2CCN(c3ccc(C(=O)NS(=O)(=O)c4ccc(N[C@H](CCN5CCOCC5)CSc5ccccc5)c(S(=O)(=O)C(F)(F)F)c4)cc3)CC2)C1 [Navitoclax] (partner 0.5 µM)
How it was run: as §1

Cell Line | relative viability (Selisistat + Phenformin; first compound 0.4 µM) | relative viability (Selisistat + Phenformin; first compound 1.265 µM) | relative viability (Selisistat + Phenformin; first compound 4 µM) | relative viability (Selisistat + Phenformin; first compound 12.65 µM) | relative viability (Selisistat + Phenformin; first compound 40 µM) | relative viability (Serdemetan + Luminespib; first compound 0.04 µM) | relative viability (Serdemetan + Luminespib; first compound 0.1265 µM) | relative viability (Serdemetan + Luminespib; first compound 0.4 µM) | relative viability (Serdemetan + Luminespib; first compound 1.265 µM) | relative viability (Serdemetan + Luminespib; first compound 4 µM) | relative viability (Serdemetan + Alpelisib; first compound 0.04 µM) | relative viability (Serdemetan + Alpelisib; first compound 0.1265 µM) | relative viability (Serdemetan + Alpelisib; first compound 1.265 µM) | relative viability (Serdemetan + Alpelisib; first compound 4 µM) | relative viability (Selisistat + Navitoclax; first compound 0.4 µM) | relative viability (Selisistat + Navitoclax; first compound 1.265 µM) | relative viability (Selisistat + Navitoclax; first compound 4 µM) | relative viability (Selisistat + Navitoclax; first compound 12.65 µM) | relative viability (Selisistat + Navitoclax; first compound 40 µM) | relative viability (Serdemetan + Alpelisib; first compound 0.4 µM)
PC-3 [JPC-3] | 0.488 | 0.481 | 0.48 | 0.487 | 0.48 | 0.651 | 0.612 | 0.621 | 0.654 | 0.494 | 1.04 | 0.979 | 1.01 | 1.05 | 0.753 | 0.741 | 0.746 | 0.696 | 0.776 | –
PC-14 | 0.522 | 0.415 | 0.314 | 0.488 | 0.643 | 0.129 | 0.163 | – | 0.149 | 0.107 | 0.954 | 0.93 | 0.852 | 0.825 | 0.963 | 1.04 | 1.03 | 1.04 | 1.07 | 0.784
RERF-LC-KJ | 0.5 | 0.412 | 0.399 | 0.338 | 0.362 | 1.43 | 1.16 | 1.17 | 1.1 | 1.12 | 0.804 | 0.832 | 0.801 | 0.643 | 0.812 | 1.1 | 0.84 | 0.702 | 0.627 | 0.777
SK-LU-1 | 0.504 | 0.528 | 0.465 | 0.542 | 0.625 | 0.19 | 0.201 | 0.223 | – | 0.207 | 1.14 | 1.07 | 0.758 | 0.669 | 1.08 | 0.897 | 1.05 | 0.837 | 0.893 | 0.944
SK-MES-1 | 0.683 | 0.718 | 0.681 | 0.695 | 0.681 | 0.789 | 0.731 | 0.799 | 0.617 | 0.772 | 0.836 | 0.792 | 0.834 | 0.526 | 1.29 | 1.14 | 1.4 | 1.26 | 1.26 | 0.74
SW 1573 | 0.411 | 0.314 | 0.362 | 0.445 | 0.399 | 0.343 | 0.161 | 0.215 | 0.113 | 0.192 | 0.7 | 0.791 | 0.463 | 0.385 | 0.997 | 0.781 | 0.93 | 1.15 | 0.934 | 0.722
